Earlier results as cited in paper PMC4408534 (Journal of nuclear medicine : official publication, Society …, 2014).

Tests used:
[1] = system: rat SSTR2 expressed in AR42J membranes; conditions: ref [28]
[2] = system: human SSTR2-transfected cell membranes; conditions: ± SEM, ref [27]

C[C@@H](O)[C@H](NC(=O)[C@@H]1CSSC[C@H](NC(=O)[C@@H](Cc2ccccc2)NC(=O)CN2CCN(CC(=O)[O-])CCN(CC(=O)[O-])CCN(CC(=O)[O-])CC2)C(=O)N[C@@H](Cc2ccc(O)cc2)C(=O)N[C@H](Cc2c[nH]c3ccccc23)C(=O)N[C@@H](CCCCN)C(=O)N[C@@H]([C@@H](C)O)C(=O)N1)C(=O)O.[177Lu+3] [177-Lu-Dotatate, Lu-177-Tyr3-octreotate]
binding affinity, rat SSTR2 [1]: 0.21 to 0.23 nM
binding affinity, human SSTR2 [2]: 1.5 ± 0.4 nM
